# ± gives the uncertainty stated by the source.
# Assay: xn = mol fraction of the nth substance listed
# Conditions: 298 K; 100 kPa; x2 = 0.9022
smiles,measurement,value
CCCC(=O)O + CC(CC(C)(C)C)CP(=O)([O-])CC(C)CC(C)(C)C.CCCCCCCCCCCCCC[P+](CCCCCC)(CCCCCC)CCCCCC,viscosity,950 ± 110 mPa·s
